How the values were obtained:
[1] = biological target: T1, UGT1A6 (Homo sapiens, UniProt P19224); test: Inhibition of recombinant UGT1A6-catalyzed 4-MU glucuronidation; assay type: in vitro ADME; conditions: recombinant UGT1A6, pH 7.4, probe 4-MU (110 μM), 100 μM kurarinone, recombinant UGT
T1 construct: purchased BD Gentest Corp. (Woburn, MA, USA)
T1 sequence (P19224 27-532): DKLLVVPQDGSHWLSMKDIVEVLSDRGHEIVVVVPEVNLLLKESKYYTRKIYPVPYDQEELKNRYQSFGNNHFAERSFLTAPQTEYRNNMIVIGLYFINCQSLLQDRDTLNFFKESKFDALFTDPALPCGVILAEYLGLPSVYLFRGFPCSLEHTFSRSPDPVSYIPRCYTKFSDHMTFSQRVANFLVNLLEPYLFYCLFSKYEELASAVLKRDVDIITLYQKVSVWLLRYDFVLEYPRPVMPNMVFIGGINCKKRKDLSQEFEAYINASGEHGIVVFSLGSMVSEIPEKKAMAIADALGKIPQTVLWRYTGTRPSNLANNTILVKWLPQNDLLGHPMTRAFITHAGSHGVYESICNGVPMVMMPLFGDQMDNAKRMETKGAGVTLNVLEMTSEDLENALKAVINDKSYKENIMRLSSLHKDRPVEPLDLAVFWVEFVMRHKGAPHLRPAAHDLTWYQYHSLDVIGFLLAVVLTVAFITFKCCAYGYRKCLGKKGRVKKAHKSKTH
Description: 4-MU, a nonspecific probe substrate for UGT isoforms, was used to explore the inhibition of UGT isoforms by kurarinone. The mixture (200 μL total volume) contained recombinant UGTs (final concentrations: 0.125, 0.05, 0.025, 0.05, 0.025, 0.05, 0.05, 0.25, 0.05, and 0.2 mg/mL for UGT1A1, UGT1A3, UGT1A6, UGT1A7, UGT1A8, UGT1A9, UGT1A10, UGT2B4, UGT2B7, and UGT2B15, respectively), 5 mM UDPGA, 5 mM MgCl2, 50 mM Tris-HCl buffer (pH 7.4), and 4-MU in the absence or presence of various concentrations of kurarinone. The concentrations of 4-MU were as follows: 110 μM for UGT1A1 and UGT1A6, 1200 μM for UGT1A3 and UGT2B4, 15 μM for UGT1A7, 750 μM for UGT1A8, 30 μM for UGT1A9, 80 μM for UGT1A10, 350 μM for UGT2B7, 250 μM for UGT2B15, and 2000 μM for UGT2B17. Kurarinone was dissolved in methanol, and the final concentration of methanol was 0.5% (v/v). Reactions were initiated by adding UDPGA, and incubations were carried out at 37°C in a shaking waterbath for 60 min. The reactions were terminated by addition of 200 μL of ice-cold acetonitrile containing 7-hydroxycoumarin (100 μM) as the internal standard. The incubation mixture was then centrifuged at 20,000 ×g for 20 min to obtain the supernatant, and an aliquot of supernatant (20 μL) was transferred to an autoinjector vial for HPLC analysis.

[2] = tested on: HL-7702 cells; conditions: cited from earlier work
[3] = biological target: T2, CYP1A2 (Rattus norvegicus, UniProt P04799); test: Inhibition of CYP1A2 activity (phenacetin O-deethylation) in RLMs; assay type: in vitro ADME
T2 construct: tissue Research Institute for Liver Disease Co., Ltd. (Shanghai, China); host or cells: pooled rat liver microsomes
T2 sequence (P04799 2-513): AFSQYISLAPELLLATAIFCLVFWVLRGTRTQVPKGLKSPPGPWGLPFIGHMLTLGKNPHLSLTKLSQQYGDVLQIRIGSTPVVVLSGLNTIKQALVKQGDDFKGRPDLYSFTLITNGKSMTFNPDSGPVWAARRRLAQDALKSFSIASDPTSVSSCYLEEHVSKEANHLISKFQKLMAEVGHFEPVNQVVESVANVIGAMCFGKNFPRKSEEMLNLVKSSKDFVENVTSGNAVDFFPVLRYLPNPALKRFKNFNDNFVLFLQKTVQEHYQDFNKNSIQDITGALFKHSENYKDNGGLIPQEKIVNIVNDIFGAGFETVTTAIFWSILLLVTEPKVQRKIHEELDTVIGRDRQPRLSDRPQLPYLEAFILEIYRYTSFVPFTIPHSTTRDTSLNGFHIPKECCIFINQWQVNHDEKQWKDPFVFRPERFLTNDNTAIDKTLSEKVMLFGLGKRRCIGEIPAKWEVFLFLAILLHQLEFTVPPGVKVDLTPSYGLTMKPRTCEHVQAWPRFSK
Description: (§1) Samples were prepared in a total volume of 200 μL, containing 0.3 mg/mL protein in human liver microsomes or 15 nM protein in recombinant human supersomes, probe substrates or 50 μM kurarinone, 10 mM MgCl2, 10 mM glucose-6-phosphate, and 1 unit/mL of glucose-6-phosphate dehydrogenase. The reactions were activated by adding NADPH following preincubation at 37°C for 5 min. The reactions were maintained at 37°C for 1 h and terminated by adding 200 μL ice-cold acetonitrile. The supernatant (10 μL) collected from the samples that were centrifuged (20,000 g, 20 min, 4°C) was injected into the HPLC system for analysis. Control incubations devoid of NADPH or kurarinone were performed parallelly to ensure that the produced metabolites were NADPH- or kurarinone-dependent.
RLMs were used to assess the inhibitory effects of kurarinone (100 μM) on six different human isoforms (CYP1A2, CYP2C9, CYP2D6, CYP2E1, CYP3A4, and CYP2C19). The probe substrates used in this experiment were 40 μM phenacetin for CYP1A2, 10 μM diclofenac for CYP2C9, 25 μM dextromethorphan for CYP2D6, 120 μM chlorzoxazone for CYP2E1, 35 μM testosterone for CYP3A4, and 20 μM (S)-mephenytoin for […] as described earlier. The reaction system has been described in Section 2.3. […] Dixon and Lineweaver–Burk plots were formed to confirm the reversible inhibition type, and a second plot of slopes from the Lineweaver–Burk plot over the concentrations of kurarinone was used to estimate the Ki value. All incubations were performed in triplicates, and mean values were used for analysis.

[4] = tested on: primary rat hepatocytes; conditions: cited from earlier work
[5] = tested on: CYP2C9; test: Inhibition of CYP2C9 activity (diclofenac probe) in RLMs; assay type: in vitro ADME; conditions: rat, rat liver microsomes, probe diclofenac 10 μM, 100 μM kurarinone, 10 μM diclofenac
Description: as §1
RLMs were used to assess the inhibitory effects of kurarinone (100 μM) on six different human isoforms (CYP1A2, CYP2C9, CYP2D6, CYP2E1, CYP3A4, and CYP2C19). The probe substrates used in this experiment were 40 μM phenacetin for CYP1A2, 10 μM diclofenac for CYP2C9, 25 μM dextromethorphan for CYP2D6, 120 μM chlorzoxazone for CYP2E1, 35 μM testosterone for CYP3A4, and 20 μM (S)-mephenytoin for […] as described earlier. The reaction system has been described in Section 2.3. […]

inhibition at 60 min, 100 μM [1]: > 90%
inhibition type against CYP1A2 ([3]; Dixon and Lineweaver–Burk plots): competitive
IC50 ([3]; phenacetin O-deethylation, RLMs, read-out: IC50 against CYP1A2): 10 µM
inhibition at 1 h, 100 μM ([3]; rat, rat liver microsomes, probe phenacetin 40 μM (O-deethylation), 100 μM kurarinone, 40 μM phenacetin, RLMs): > 90%
Ki ([3]; second plot of slopes from Lineweaver–Burk plots, RLMs): 8.13 µM
inhibition at 1 h, 100 μM [5]: > 90%
Compound: C=C(C)[C@H](CC=C(C)C)Cc1c(O)cc(OC)c2c1O[C@H](c1ccc(O)cc1O)CC2=O [Kurarinone]
cytotoxicity [2]: remarkable cytotoxicity
cytotoxicity [4]: remarkable cytotoxicity
